This is an account of results in ChEMBL document CHEMBL1201862, “PubChem BioAssay data set” (2004).

Each structure is given as a SMILES string.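 Each compound was tested at five concentrations against cells in 96-well plates for 48 hours. GI50 = concentration required for 50% inhibition of growth.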 Activity calls are given as the source filed them. Cut-off read from the data, not from the text of the source: active = GI50 up to about 1.1 µM and inactive = higher.

Among the test systems are CCRF-CEM; COLO 205; DU-145; HL-60; HOP-92; IGROV-1; MCF7; MDA-MB-231; MDA-MB-435; MDA-N; NCI-H23; NCI-H460; PC-3; SF-268; SF-539; SK-MEL-2; SN12C; SNB-75; UACC-62; UO-31.
Experiment in all cases: NCI tumour cell line growth inhibition, 48 h

Take `O=C1c2ccccc2C(=O)c2c(NC(=O)C(Cl)CCl)cccc21` (stereo not given): the GI50 is 0.163 µM (active) with CCRF-CEM; 6.47 µM (inactive) in the experiment on COLO 205; 7.38 µM (inactive) with DU-145; 0.361 µM (active) with HL-60; 3.97 µM (inactive) in the experiment on HOP-92; 5.02 µM (inactive) in the experiment on IGROV-1. Moreover, the GI50 in the experiment on MCF7 is 0.785 µM (active); in the experiment with MDA-MB-231, 6.53 µM (inactive); with MDA-MB-435, 7.11 µM (inactive); with MDA-N it was 10.4 µM (inactive); in the experiment with NCI-H23 it was 4.03 µM (inactive); in the experiment with NCI-H460 it was 6.32 µM (inactive). Moreover, the GI50 is 9.33 µM (inactive) in the experiment with PC-3; 5.7 µM (inactive) in the experiment on SF-268; 4.83 µM (inactive) in the experiment on SF-539; 5.09 µM (inactive) in the experiment on SK-MEL-2; 7.67 µM (inactive) in the experiment with SN12C; 10.5 µM (inactive) with SNB-75. Moreover, the GI50 was 10.1 µM (inactive) in the experiment on UACC-62 and 10.6 µM (inactive) with UO-31.

Regarding `CC(C)(C)c1cc(C(C)(C)C)c(P=C(Cl)Cl)c(C(C)(C)C)c1` (stereo not given), the GI50 in the experiment with CCRF-CEM, in the experiment with COLO 205, with DU-145, with HL-60, in the experiment on HOP-92 and with IGROV-1 was > 100 µM (inactive) in each case. The GI50 in the experiment with MCF7, in the experiment on MDA-MB-231, with MDA-MB-435, in the experiment on MDA-N, with NCI-H23 and with NCI-H460 was > 100 µM (inactive) in each case. For the same molecule, the GI50 in the experiment on PC-3, in the experiment with SF-268, in the experiment with SF-539, in the experiment with SK-MEL-2, in the experiment on SN12C and in the experiment with SNB-75 was > 100 µM (inactive) in each case. Besides, the GI50 in the experiment on UACC-62 and in the experiment on UO-31 was > 100 µM (inactive) each time.

In the case of `COc1cc2oc3cc(=O)cc4oc(-c5ccccc5)cc(c2c2c1CCC(c1ccccc1)O2)c43` (stereo not given), the GI50 in the experiment on CCRF-CEM is 61 µM (inactive); in the experiment with COLO 205, 18.8 µM (inactive); in the experiment on DU-145 it was 24.3 µM (inactive); in the experiment on HL-60 it was 25 µM (inactive); with HOP-92, > 100 µM (inactive); in the experiment on IGROV-1 it was 33.1 µM (inactive). Further, the GI50 in the experiment on MCF7 is 7.66 µM (inactive); with MDA-MB-231 it was 22.3 µM (inactive); in the experiment on MDA-MB-435, 22.7 µM (inactive); with MDA-N it was 22 µM (inactive); with NCI-H23, 62.8 µM (inactive); with NCI-H460 it was 27.5 µM (inactive). The GI50 was 47.8 µM (inactive) in the experiment on PC-3; > 100 µM (inactive) in the experiment with SF-268; 24.5 µM (inactive) in the experiment with SF-539; 33 µM (inactive) with SK-MEL-2; 25.2 µM (inactive) with SN12C; 79.1 µM (inactive) with SNB-75. The GI50 in the experiment on UACC-62 is 35.1 µM (inactive); in the experiment with UO-31, 55.6 µM (inactive).

On to `CC[C@]1(Cc2ccc(OC)c(OC)c2)C=[N+]([O-])O[C@H](OC2CCCC2(c2ccccc2)c2ccccc2)[C@@H]1OC(=O)c1ccccc1` (stereo not given in full), for which the GI50 is 3.27 µM (inactive) with CCRF-CEM; 8.79 µM (inactive) with COLO 205; 10.6 µM (inactive) in the experiment on DU-145; 3.21 µM (inactive) with HL-60; 3.02 µM (inactive) in the experiment with HOP-92; 3.67 µM (inactive) in the experiment with IGROV-1. Moreover, the GI50 in the experiment with MCF7 was 3.38 µM (inactive); in the experiment with MDA-MB-231, > 24.9 µM (inactive); in the experiment on MDA-MB-435, 3.73 µM (inactive); in the experiment with MDA-N, 8.17 µM (inactive); in the experiment with NCI-H23 it was 6.37 µM (inactive); with NCI-H460, 14.2 µM (inactive). For the same molecule, the GI50 was 5.47 µM (inactive) with PC-3; 28.7 µM (inactive) in the experiment with SF-268; > 100 µM (inactive) with SF-539; 8 µM (inactive) with SK-MEL-2; > 21.2 µM (inactive) in the experiment with SN12C; 6.62 µM (inactive) in the experiment with SNB-75. The GI50 in the experiment on UACC-62 was 8.67 µM (inactive); with UO-31, 6.7 µM (inactive).

`CCCNC(=S)N/N=C1\C(=O)Nc2ccccc21`: the GI50 in the experiment on CCRF-CEM, in the experiment with COLO 205, in the experiment on DU-145, with HL-60, in the experiment on HOP-92 and in the experiment with IGROV-1 was > 100 µM (inactive) throughout. The GI50 in the experiment on MCF7, in the experiment on MDA-MB-231, in the experiment on MDA-MB-435, in the experiment with MDA-N, in the experiment on NCI-H23 and in the experiment on NCI-H460 was > 100 µM (inactive) throughout. In addition, the GI50 in the experiment on PC-3, with SF-268, with SF-539, with SK-MEL-2, in the experiment with SN12C and in the experiment with SNB-75 was > 100 µM (inactive) each time. Moreover, the GI50 in the experiment with UACC-62 and in the experiment on UO-31 was > 100 µM (inactive) throughout.

Regarding `c1ccc(/N=C2\c3ccsc3/C(=N/c3ccccc3)c3ccsc32)cc1`, the GI50 is 2.97 µM (inactive) with CCRF-CEM; 2.63 µM (inactive) with COLO 205; 1.73 µM (inactive) in the experiment on DU-145; 1.61 µM (inactive) with HL-60; 2.61 µM (inactive) with HOP-92; 1.92 µM (inactive) in the experiment with IGROV-1. In addition, the GI50 in the experiment with MCF7 is 2.62 µM (inactive); in the experiment with MDA-MB-231 it was 1.77 µM (inactive); in the experiment with MDA-MB-435, 0.213 µM (active); in the experiment on MDA-N, 0.244 µM (active); in the experiment with NCI-H23, 0.914 µM (active); in the experiment with NCI-H460 it was 2.01 µM (inactive). For the same molecule, the GI50 in the experiment with PC-3 was 2.16 µM (inactive); with SF-268, 2.4 µM (inactive); in the experiment with SF-539, 1.99 µM (inactive); with SK-MEL-2 it was 1.6 µM (inactive); with SN12C, 1.58 µM (inactive); in the experiment on SNB-75, 1.2 µM (inactive). Besides, the GI50 in the experiment with UACC-62 was 1.84 µM (inactive); in the experiment on UO-31, 2.09 µM (inactive).
